From PubChem BioAssay AID2060611 (Molecular Pharmacology Branch, DTP, NCI, 2025)

Test system: 628569-122-R-J1-PDC complex spheroid viability
Assay: Anticancer human tumor 628569-122-R-J1-PDC patient-derived head and neck squamous carcinoma cell line growth inhibition [CLK]
Settings: for IC50: curve of first compound; for viability, T/C: stronger effect = lower value
Method in brief: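 Multi-cell-type spheroids combined patient-derived tumor cells with HUVEC endothelial cells and human mesenchymal stem cells. Paired agents were dosed in half-log steps down from about clinical Cmax, or from 10 microM where Cmax was unknown.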

[1] = second compound 0.0316 µM, first compound 0.00949 µM
[2] = second compound 0.0316 µM, first compound 0.03 µM
[3] = second compound 0.0316 µM, first compound 0.0949 µM
[4] = second compound 0.0316 µM, first compound 0.3 µM
[5] = second compound 0.1 µM, first compound 0.00949 µM
[6] = second compound 0.1 µM, first compound 0.03 µM
[7] = second compound 0.1 µM, first compound 0.0949 µM
[8] = second compound 0.1 µM, first compound 0.3 µM
[9] = second compound 0.316 µM, first compound 0.00949 µM
[10] = second compound 0.316 µM, first compound 0.03 µM
[11] = second compound 0.316 µM, first compound 0.0949 µM
[12] = second compound 0.316 µM, first compound 0.3 µM
[13] = second compound 1 µM, first compound 0.00949 µM
[14] = second compound 1 µM, first compound 0.03 µM
[15] = second compound 1 µM, first compound 0.0949 µM
[16] = second compound 1 µM, first compound 0.3 µM
[17] = second compound 3.16 µM, first compound 0.00949 µM
[18] = second compound 3.16 µM, first compound 0.03 µM
[19] = second compound 3.16 µM, first compound 0.0949 µM
[20] = second compound 3.16 µM, first compound 0.3 µM
[21] = second compound 10 µM, first compound 0.00949 µM
[22] = second compound 10 µM, first compound 0.03 µM
[23] = second compound 10 µM, first compound 0.0949 µM
[24] = second compound 10 µM, first compound 0.3 µM
[25] = second compound 0.0316 µM, first compound 0.0316 µM
[26] = second compound 0.0316 µM, first compound 0.1 µM
[27] = second compound 0.0316 µM, first compound 0.316 µM
[28] = second compound 0.0316 µM, first compound 1 µM
[29] = second compound 0.0316 µM, first compound 3.16 µM
[30] = second compound 0.0316 µM, first compound 10 µM
[31] = second compound 0.1 µM, first compound 0.0316 µM
[32] = second compound 0.1 µM, first compound 0.1 µM
[33] = second compound 0.1 µM, first compound 0.316 µM
[34] = second compound 0.1 µM, first compound 1 µM
[35] = second compound 0.1 µM, first compound 3.16 µM
[36] = second compound 0.1 µM, first compound 10 µM
[37] = second compound 0.316 µM, first compound 0.0316 µM
[38] = second compound 0.316 µM, first compound 0.1 µM
[39] = second compound 0.316 µM, first compound 0.316 µM
[40] = second compound 0.316 µM, first compound 1 µM
[41] = second compound 0.316 µM, first compound 3.16 µM
[42] = second compound 0.316 µM, first compound 10 µM
[43] = second compound 1 µM, first compound 0.0316 µM
[44] = second compound 1 µM, first compound 0.1 µM
[45] = second compound 1 µM, first compound 0.316 µM
[46] = second compound 1 µM, first compound 1 µM
[47] = second compound 1 µM, first compound 3.16 µM
[48] = second compound 1 µM, first compound 10 µM
[49] = second compound 3.16 µM, first compound 0.0316 µM
[50] = second compound 3.16 µM, first compound 0.1 µM
[51] = second compound 3.16 µM, first compound 0.316 µM
[52] = second compound 3.16 µM, first compound 1 µM
[53] = second compound 3.16 µM, first compound 3.16 µM
[54] = second compound 3.16 µM, first compound 10 µM
[55] = second compound 10 µM, first compound 0.0316 µM
[56] = second compound 10 µM, first compound 0.1 µM
[57] = second compound 10 µM, first compound 0.316 µM
[58] = second compound 10 µM, first compound 1 µM
[59] = second compound 10 µM, first compound 3.16 µM
[60] = second compound 10 µM, first compound 10 µM
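Note: spheroids exposed to agents for seven days before readout.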
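Throughout, for viability, T/C: 100% = DMSO vehicle control viability.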

C=CC(=O)Nc1cc(Nc2nccc(-c3cn(C)c4ccccc34)n2)c(OC)cc1N(C)CCN(C)C + CNC(=O)c1ccc(Nc2nc(OC3CCCC3)c3c(-c4ccc5nc(C)oc5c4)c[nH]c3n2)c(OC)c1
IC50 (second compound 0.0316 µM): > 300 nM | IC50 (second compound 0.1 µM): 26.9 nM | IC50 (second compound 0.316 µM): 17.9 nM | IC50 (second compound 1 µM): < 0.949 nM | IC50 (second compound 3.16 µM): < 0.949 nM | IC50 (second compound 10 µM): < 0.949 nM | viability, T/C (second compound 0.0316 µM, first compound 0.000949 µM): 81.8% | viability, T/C (second compound 0.0316 µM, first compound 0.003 µM): 98.1% | viability, T/C [1]: 86.1% | viability, T/C [2]: 84.2% | viability, T/C [3]: 68.1% | viability, T/C [4]: 53.7% | viability, T/C (second compound 0.1 µM, first compound 0.000949 µM): 63% | viability, T/C (second compound 0.1 µM, first compound 0.003 µM): 56.2% | viability, T/C [5]: 52.4% | viability, T/C [6]: 49% | viability, T/C [7]: 49.6% | viability, T/C [8]: 37.6% | viability, T/C (second compound 0.316 µM, first compound 0.000949 µM): 50.7% | viability, T/C (second compound 0.316 µM, first compound 0.003 µM): 55.7% | viability, T/C [9]: 49% | viability, T/C [10]: 49.5% | viability, T/C [11]: 41.5% | viability, T/C [12]: 23.9% | viability, T/C (second compound 1 µM, first compound 0.000949 µM): 49.1% | viability, T/C (second compound 1 µM, first compound 0.003 µM): 51.4% | viability, T/C [13]: 38.8% | viability, T/C [14]: 42.1% | viability, T/C [15]: 36.6% | viability, T/C [16]: 18.9% | viability, T/C (second compound 3.16 µM, first compound 0.000949 µM): 43.1% | viability, T/C (second compound 3.16 µM, first compound 0.003 µM): 48.9% | viability, T/C [17]: 39.3% | viability, T/C [18]: 44.2% | viability, T/C [19]: 23.7% | viability, T/C [20]: 13.7% | viability, T/C (second compound 10 µM, first compound 0.000949 µM): 46.5% | viability, T/C (second compound 10 µM, first compound 0.003 µM): 40.6% | viability, T/C [21]: 46.8% | viability, T/C [22]: 45% | viability, T/C [23]: 25.8% | viability, T/C [24]: 12%

CC1(C)CCC(CN2CCN(c3ccc(C(=O)NS(=O)(=O)c4ccc(NCC5CCOCC5)c([N+](=O)[O-])c4)c(Oc4cnc5[nH]ccc5c4)c3)CC2)=C(c2ccc(Cl)cc2)C1 + CNC(=O)c1ccc(Nc2nc(OC3CCCC3)c3c(-c4ccc5nc(C)oc5c4)c[nH]c3n2)c(OC)c1
IC50 (second compound 0.0316 µM): > 10000 nM | IC50 (second compound 0.1 µM): > 10000 nM | IC50 (second compound 0.316 µM): > 10000 nM | IC50 (second compound 1 µM): > 10000 nM | IC50 (second compound 3.16 µM): < 31.6 nM | IC50 (second compound 10 µM): 80.2 nM | viability, T/C [25]: 124% | viability, T/C [26]: 102% | viability, T/C [27]: 96.6% | viability, T/C [28]: 94.7% | viability, T/C [29]: 111% | viability, T/C [30]: 75.4% | viability, T/C [31]: 65.9% | viability, T/C [32]: 55.9% | viability, T/C [33]: 60.4% | viability, T/C [34]: 57.5% | viability, T/C [35]: 60.4% | viability, T/C [36]: 63.4% | viability, T/C [37]: 52.7% | viability, T/C [38]: 51.8% | viability, T/C [39]: 53.6% | viability, T/C [40]: 57.9% | viability, T/C [41]: 69.7% | viability, T/C [42]: 51% | viability, T/C [43]: 48.1% | viability, T/C [44]: 51.4% | viability, T/C [45]: 53.2% | viability, T/C [46]: 59.6% | viability, T/C [47]: 49.4% | viability, T/C [48]: 53.6% | viability, T/C [49]: 46.1% | viability, T/C [50]: 48.4% | viability, T/C [51]: 53.5% | viability, T/C [52]: 51.4% | viability, T/C [53]: 45.8% | viability, T/C [54]: 41.2% | viability, T/C [55]: 59.9% | viability, T/C [56]: 48.7% | viability, T/C [57]: 41.1% | viability, T/C [58]: 43.5% | viability, T/C [59]: 47.2% | viability, T/C [60]: 38.6%

NC(=O)C(=Cn1cnc(-c2cc(C(F)(F)F)cc(C(F)(F)F)c2)n1)c1cncnc1 + CNC(=O)c1ccc(Nc2nc(OC3CCCC3)c3c(-c4ccc5nc(C)oc5c4)c[nH]c3n2)c(OC)c1
IC50 (second compound 0.0316 µM): 681 nM | IC50 (second compound 0.1 µM): 137 nM | IC50 (second compound 0.316 µM): < 9.49 nM | IC50 (second compound 1 µM): < 9.49 nM | IC50 (second compound 3.16 µM): < 9.49 nM | IC50 (second compound 10 µM): < 9.49 nM | viability, T/C [1]: 75.8% | viability, T/C [2]: 61.6% | viability, T/C [3]: 69.8% | viability, T/C [4]: 52% | viability, T/C (second compound 0.0316 µM, first compound 0.949 µM): 50.8% | viability, T/C (second compound 0.0316 µM, first compound 3 µM): 35.6% | viability, T/C [5]: 52.4% | viability, T/C [6]: 53.9% | viability, T/C [7]: 50.5% | viability, T/C [8]: 47.5% | viability, T/C (second compound 0.1 µM, first compound 0.949 µM): 39.5% | viability, T/C (second compound 0.1 µM, first compound 3 µM): 32.4% | viability, T/C [9]: 47.1% | viability, T/C [10]: 51.7% | viability, T/C [11]: 44.1% | viability, T/C [12]: 42.5% | viability, T/C (second compound 0.316 µM, first compound 0.949 µM): 35.9% | viability, T/C (second compound 0.316 µM, first compound 3 µM): 33.8% | viability, T/C [13]: 40.7% | viability, T/C [14]: 45.9% | viability, T/C [15]: 31.9% | viability, T/C [16]: 29.5% | viability, T/C (second compound 1 µM, first compound 0.949 µM): 26.2% | viability, T/C (second compound 1 µM, first compound 3 µM): 25.7% | viability, T/C [17]: 36.9% | viability, T/C [18]: 41.2% | viability, T/C [19]: 28.7% | viability, T/C [20]: 25.5% | viability, T/C (second compound 3.16 µM, first compound 0.949 µM): 15.9% | viability, T/C (second compound 3.16 µM, first compound 3 µM): 12.3% | viability, T/C [21]: 38.6% | viability, T/C [22]: 33.7% | viability, T/C [23]: 30.7% | viability, T/C [24]: 21.4% | viability, T/C (second compound 10 µM, first compound 0.949 µM): 17.7% | viability, T/C (second compound 10 µM, first compound 3 µM): 13.7%

Nc1ccccc1NC(=O)c1ccc(CNC(=O)OCc2cccnc2)cc1 + CNC(=O)c1ccc(Nc2nc(OC3CCCC3)c3c(-c4ccc5nc(C)oc5c4)c[nH]c3n2)c(OC)c1
IC50 (second compound 0.0316 µM): 9140 nM | IC50 (second compound 0.1 µM): > 10000 nM | IC50 (second compound 0.316 µM): > 10000 nM | IC50 (second compound 1 µM): 184 nM | IC50 (second compound 3.16 µM): 3310 nM | IC50 (second compound 10 µM): 31.6 nM | viability, T/C [25]: 97.7% | viability, T/C [26]: 114% | viability, T/C [27]: 125% | viability, T/C [28]: 138% | viability, T/C [29]: 101% | viability, T/C [30]: 45.6% | viability, T/C [31]: 59.1% | viability, T/C [32]: 55% | viability, T/C [33]: 61.9% | viability, T/C [34]: 83.7% | viability, T/C [35]: 102% | viability, T/C [36]: 32.3% | viability, T/C [37]: 50.8% | viability, T/C [38]: 51% | viability, T/C [39]: 49% | viability, T/C [40]: 73.3% | viability, T/C [41]: 94.1% | viability, T/C [42]: 22.5% | viability, T/C [43]: 42.9% | viability, T/C [44]: 48.7% | viability, T/C [45]: 47.4% | viability, T/C [46]: 60.4% | viability, T/C [47]: 81.8% | viability, T/C [48]: 12.5% | viability, T/C [49]: 44.6% | viability, T/C [50]: 45.5% | viability, T/C [51]: 45.8% | viability, T/C [52]: 56.5% | viability, T/C [53]: 67.3% | viability, T/C [54]: 7.27% | viability, T/C [55]: 48.6% | viability, T/C [56]: 41.5% | viability, T/C [57]: 44.2% | viability, T/C [58]: 54.3% | viability, T/C [59]: 57.6% | viability, T/C [60]: 4.45%
